Experimental data: patent US10787430B2, “Hemoglobin modifier compounds and uses thereof” (FronThera U.S. Pharmaceuticals LLC, priority 2016, dated 2020)
Structures can show the parent of a compound that is named as a salt. Where two headings read alike, the source gives them in different places.

Key:
[1] = Pharmacokinetic study in rats (plasma and red blood cell); format: in vivo; conditions: male, Sprague-Dawley, rat, oral, 7.2 mg/kg
Procedure: Rats (Sprague-Dawley, male, 220-280 g) were dosed with GBT-440 (HCl salt) and one of three compounds corresponding to Example 27, 29, and 38. The rats received oral (7.2 mpk) doses of the compound. Rats were fasted overnight before the experiments and provided with food four hours after dosing. The oral dosing formulations was prepared as follows: approximately 10 mg of compound was weighed precisely to an appropriate size of container, to which was added 2 mL of vehicle 0.5% methylcellulose in water and 8 μL 0.5% sodium dodecyl sulfate. The mixture was then transferred into a glass vial, and volume adjusted to appropriate volume with 0.5% methylcellulose to obtain a final concentration of 0.72 mg·mL^−1, and then vortexed and sonicated briefly.
Whole blood sample collection: Blood samples ([…]) were collected at pre-dose, 15, 30 min, 1, 2, 4, 8, 12 and 24 h via jugular vein into tubes and anticoagulated with 3.2% TSC (trisodium citrate). The proportion of anticoagulant and blood was 1:9 (v/v). The sampling time was recorded accordingly. The tubes were gently inverted several times to ensure mixing. Then 10 μL doses of whole blood sample was transferred to a new EP tube and duplicated in wet ice.
Plasma sample collection: The remaining whole blood was processed by centrifugation at 5,500 rpm for 10 min. The supernate was collected. All these whole blood and plasma samples were kept below −20° C. for 1 h prior to analysis.
(§1) Plasma sample preparation: An aliquot of 20 μL of sample was transferred to sample treatment tube (1.5 mL EP tube), and then 100 μL ACN (0.5% FA) containing Verapamil, 5 ng·mL^−1 and Glibenclamide, 50 ng·mL^−1 for protein precipitation was added. The mixture was vortexed for 30 min, and then centrifuged at 13000 rpm for 5 min at room temperature. After that, 70 μL of supernatant was transferred to a 96-Well Plate, to which 70 μL of water added and then vortexed for 10 min at room temperature. An aliquot of 10 μL of this mixture was analyzied using LC-MS/MS.
as §1, with “Whole blood” for “Plasma”, “10” for “20”, “500” for “100”, “water was” for “water”, “analyzed” for “analyzied”
Plasma and red blood cell concentration-time data were processed by linear regression analysis. All pharmacokinetic parameters were calculated using non-compartment model of Pharsight Phoenix 6.3.
Red blood cell concentrations were calculated according to the method below: Mass balance equation: Cb·VB=Cp·Vp+CBC·VBC Where, Cb=Concentration of whole blood; VB=Volume of whole blood; Cp=Concentration of plasma; Vp=Volume of plasma; CBC=Concentration of blood cell; VBC=Volume of blood cell. VBC=H·VB, where H is the hematocrit number. Vp=(1−H)·VB

[2] = Solubility in JP1, JP2 and FaSSIF buffers; format: physicochemical; conditions: 25 °C, thermodynamic from solid, room temperature
Procedure: Conditions: 1. JP1 buffer (84 mM HCl, 34.22 mM NaCl, pH 1.2); 2. JP2 buffer (50 mM phosphate buffer at pH 6.8); 3. FaSSIF buffer, pH 6.5 (Preparation: In about 0.9 L of purified water dissolve 0.420 g of NaOH (pellets), 4.470 g of NaH2PO4 (dihydrate), 6.186 g of NaCl; Adjust the pH to 6.5 with Sodium hydroxide 1N or Hydrochloric acid 1N, to make up to volume (1 L) with purified water at room temperature; Add 0.224 g of SIF Powder Original to about 0.5 L of pH 6.5 blank buffer and stir until powder is completely dissolved; Let stand for 2 hour. FaSSIF buffer is now ready to use.
Procedures: 1. accurately weighed about 2 mg test compounds and controls in whatman vials, then transferred 450 μL buffer in to the vials; 2. Filter pistons of miniuniprep vials were placed and compressed to the position of the liquid level to allow for contact. Vortexed for 2 minutes; 3. […] Miniunipreps were compressed to prepare the filtrates for injection into HPLC system; 5. Diluted the filtrates with buffer by a factor of 50 fold to make diluents; 6. Determined the test compound concentration of the diluents and filtrates using HPLC-UV.

[3] = biological target: T1, hemoglobin (normal human adult blood) (Homo sapiens, UniProt P68871+P69905); assay: Time-dependent oxygen equilibrium curve (OEC) studies in normal whole blood; format: cell-based; conditions: 2 mM compound, 2% DMSO, normal human blood 20% hematocrit, 37° C., 1 h
T1 construct: Normal whole blood was collected from adult healthy donors; from tissue; host or cells: normal human whole blood (red blood cells), adult healthy donors
Procedure: Materials: Normal whole blood was collected from adult healthy donors at the Virginia Commonwealth University after informed consent. The use of these human samples is in accordance with regulations of the IRB for Protection of Human Subjects. Compounds (50 mM-100 mM concentration in DMSO) were stored at 15° C. or room temperature until use.
The time-dependent OEC studies were conducted on normal human adult blood samples with hematocrit value of 20% in the absence or presence of effectors solubilized in DMSO at final drug and DMSO concentrations of 2 mM and 2%, respectively. […] The mixture was further incubated at 37° C. with shaking. […] After equilibration, the sample was removed by syringe and aspirated into a ABL 700 series table top automated blood gas analyzer (Radiometer America, Inc., Westlake, Ohio) to determine values of total hemoglobin (tHb), methemoglobin (metHb), hematocrit (Hct), pH, partial pressure of oxygen (pO2), and Hb oxygen saturation values (sO2). The measured values of sO2 and pO2 at each partial pressure of oxygen are then subjected to a non-linear regression analysis using the program Scientist (Micromath, Salt Lake City, Utah) with the following equation: […]
This equation was used to calculate P50 and Hill coefficient (N) values. Corresponding control experiments without the test compound (P50control) but containing DMSO were also performed. GBT440 was used as a positive control.

[4] = red blood cells, red blood cell (calculated by mass balance from whole blood and plasma), read-out: AUC0-24 h RBC
[5] = red blood cells, red blood cell (calculated by mass balance from whole blood and plasma), read-out: Cmax RBC
[6] = red blood cells, red blood cell, read-out: T1/2 RBC (converted)
[7] = plasma, read-out: AUC0-24 h Plasma
[8] = plasma, read-out: T1/2 Plasma (converted)
[9] = aqueous buffer, JP2 buffer (50 mM phosphate) pH 6.8, 24 hr, read-out: JP2 Solubility
[10] = simulated gastric fluid, JP1 buffer pH 1.2, 24 hr, read-out: JP1 Solubility
[11] = FaSSIF buffer pH 6.5, 24 hr, read-out: FaSSIF Solubility

T1 sequence (P69905 2-142 limits assumed): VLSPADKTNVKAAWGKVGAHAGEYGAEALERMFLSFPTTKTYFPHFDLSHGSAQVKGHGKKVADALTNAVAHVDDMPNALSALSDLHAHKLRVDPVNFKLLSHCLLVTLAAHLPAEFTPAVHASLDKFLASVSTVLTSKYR
T1 sequence (P68871 2-147 limits assumed): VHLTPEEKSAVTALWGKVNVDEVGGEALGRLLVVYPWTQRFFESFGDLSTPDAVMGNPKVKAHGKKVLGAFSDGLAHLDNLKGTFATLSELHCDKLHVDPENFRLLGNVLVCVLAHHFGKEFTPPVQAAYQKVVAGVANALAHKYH

## Cl.[2H]C([2H])(Oc1cc(F)cc(O)c1C=O)c1cccnc1-c1ccnn1C(C)C [Example 27, 4-fluoro-2-hydroxy-6-((2-(1-isopropyl-1H-pyrazol-5-yl)pyridin-3-yl)methoxy-d2)benzaldehyde hydrochloric acid]
[1]; [4]
  AUC(0-t): 566 µg·h/mL
[1]; [5]
  Cmax: 50.3 µg/mL
[1]; [6]
  half-life: 26 h
[1]; [7]
  AUC(0-t): 10.7 µg·h/mL
[1]; plasma, read-out: Cmax Plasma
  Cmax: 0.742 µg/mL
[1]; [8]
  half-life: 18 h
[2]; [9]
  solubility at 24 h: 8.16 µg/mL
[2]; [10]
  solubility at 24 h: 623 µg/mL
[2]; [11]
  solubility at 24 h: 35.7 µg/mL

## Cl.[2H]C([2H])(Oc1cccc(O)c1C=O)c1cccnc1-n1ccnc1C(C)C [Example 29, 2-hydroxy-6-((2-(2-isopropyl-1H-imidazol-1-yl)pyridin-3-yl)methoxy-d2)benzaldehyde hydrochloric acid]
[1]; [4]
  AUC(0-t): 12000 µg·h/mL
[1]; [5]
  Cmax: 1240 µg/mL
[1]; [6]
  half-life: 10 h
[1]; [7]
  AUC(0-t): 42.6 µg·h/mL
[1]; plasma, read-out: Cmax Plasma
  Cmax: 4.01 µg/mL
[1]; [8]
  half-life: 12 h
[2]; [9]
  solubility at 24 h: 74.4 µg/mL
[2]; [10]
  solubility at 24 h: > 4440 µg/mL
[2]; [11]
  solubility at 24 h: 591 µg/mL

## CC(C)n1nccc1-c1cn(C)c(=O)cc1COc1cccc(O)c1C=O [Example 60, 2-hydroxy-6-((5-(1-isopropyl-1H-pyrazol-5-yl)-1-methyl-2-oxo-1,2-dihydropyridin-4-yl)methoxy)benzaldehyde]
[3]
  delta p50: −69%

## CC(C)n1nccc1-c1nccc2c1C(Oc1cccc(O)c1C=O)CO2 (stereo not shown) [Example 61g, 2-hydroxy-6-((4-(1-isopropyl-1H-pyrazol-5-yl)-2,3-dihydrofuro[3,2-c]pyridin-3-yl)oxy)benzaldehyde]
[3]
  delta p50: −59%

## CC(C)n1nccc1-c1nccc2c1[C@@H](Oc1cccc(O)c1C=O)CO2 [Example 62a, (R)-2-hydroxy-6-((4-(1-isopropyl-1H-pyrazol-5-yl)-2,3-dihydrofuro[3,2-c]pyridin-3-yl)oxy)benzaldehyde]
[3]
  delta p50: −63%

## CC(C)n1nccc1-c1nccc2c1[C@H](Oc1cccc(O)c1C=O)CO2 [Example 62b, (S)-2-hydroxy-6-((4-(1-isopropyl-1H-pyrazol-5-yl)-2,3-dihydrofuro[3,2-c]pyridin-3-yl)oxy)benzaldehyde]
[3]
  delta p50: −64%

## CC(C)n1nccc1-c1ncccc1COc1cccc(O)c1C=O [GBT-440 (HCl salt), reference compound]
[1]; [4]
  AUC(0-t): 3440 µg·h/mL
[1]; [5]
  Cmax: 216 µg/mL
[1]; [6]
  half-life: 17 h
[1]; [7]
  AUC(0-t): 22.8 µg·h/mL
[1]; plasma, read-out: Cmax Plasma
  Cmax: 2.15 µg/mL
[1]; [8]
  half-life: 19 h
[2]; [9]
  solubility at 24 h: 28 µg/mL
[2]; [10]
  solubility at 24 h: 986 µg/mL
[2]; [11]
  solubility at 24 h: 95.7 µg/mL
